Results published in patent US10004732B2 (Novartis AG, priority 2014, dated 2018).
Structures can show the parent of a compound that is named as a salt. Where two headings read alike, the source gives them in different places.

Columns and labels:
PI 3-kinase alpha = PI 3-kinase alpha (Homo sapiens, UniProt P42336); assay: Kinase Glo Luminescent Kinase Assay (Kglo), assay A; type: biochemical; conditions: read-out: Assay A PI3Kα IC50
Procedure: Kinase Glo Luminescent Kinase Assay (Kglo) for Pb 3-Kinase Alpha (A), Pb 3-Kinase Beta (B), Vps34 (C), Pb 4-Kinase Beta (D)
The Kinase Glo Luminescent Kinase Assay (Promega, Madison/Wis., USA) is a homogeneous HTS method of measuring kinase activity by quantifying the amount of ATP remaining in solution following a kinase reaction.
L-α-phosphatidylinositol (PI), provided as 10 mg/ml solution in methanol, was transferred into a glass tube and dried under a nitrogen beam. It was then resuspended in 3% OctylGlucoside (1-0-n-octyl-beta-D-glucopyranoside) by vortexing and stored at 4° C. 5 μL of a mix of PI/OctylGlucoside with the PI 3-kinase alpha and PI 3-kinase beta subtypes, or Vps34 or PI 4-kinase beta were added. Kinase reactions were started by the addition of 5 μl of an ATP-mix containing in a final volume 10 μL 10 mM TRIS-HCl pH 7.5, 3 mM MgCl2, 50 mM NaCl, 0.05% CHAPS, 1 mM DTT and 1 μM ATP at room temperature.
All fits were performed with the program XLfit4 (ID Business Solutions, Guildford, UK).

PI 3-kinase beta = PI 3-kinase beta (Homo sapiens, UniProt P42338); assay: Kinase Glo Luminescent Kinase Assay (Kglo), assay B; type: biochemical; conditions: read-out: Assay B PI3Kβ IC50
Vps34 = Vps34 (Homo sapiens, UniProt Q8NEB9); assay: Kinase Glo Luminescent Kinase Assay (Kglo), assay C; type: biochemical; conditions: read-out: Assay C VPS34 IC50
PI 4-kinase beta = PI 4-kinase beta (Homo sapiens, UniProt Q9UBF8); assay: Kinase Glo Luminescent Kinase Assay (Kglo), assay D; type: biochemical; conditions: read-out: Assay D PI4Kβ IC50
PI 3-kinase gamma = PI 3-kinase gamma (Homo sapiens, UniProt P48736); assay: TR-FRET Adapta assay, assay E; type: biochemical; conditions: read-out: Assay E PI3Kγ IC50
mTOR = mTOR (Homo sapiens, UniProt P42345); assay: Lanthascreen kinase binding assay, assay G; conditions: read-out: Assay G mTOR IC50
Procedure: Lanthascreen™ Kinase Binding Assay for mTOR (G)
Binding of an inhibitor to the kinase competes for binding with the tracer, resulting in a loss of FRET.
50 nL of compound dilutions were dispensed onto white 384-well small volume polystyrene plate.

PI 3-kinase delta = PI 3-kinase delta (Homo sapiens, UniProt O00329); assay: TR-FRET Adapta assay, assay F
[1] = Microsomal clearance assay (M); conditions: intrinsic clearance in rat liver microsomes
Procedure: The experiments were performed in 96-well glass plates at 37° C. on an automated Tecan EVO platform. Test compounds at a concentration of 10 mM in pure DMSO were diluted 1:1000 in water to 10 μM. […] Reactions were initiated by the addition of 150 μL of a cofactor solution containing 2 mM NADPH.

Sequence of PI 3-kinase delta (O00329 whole entry): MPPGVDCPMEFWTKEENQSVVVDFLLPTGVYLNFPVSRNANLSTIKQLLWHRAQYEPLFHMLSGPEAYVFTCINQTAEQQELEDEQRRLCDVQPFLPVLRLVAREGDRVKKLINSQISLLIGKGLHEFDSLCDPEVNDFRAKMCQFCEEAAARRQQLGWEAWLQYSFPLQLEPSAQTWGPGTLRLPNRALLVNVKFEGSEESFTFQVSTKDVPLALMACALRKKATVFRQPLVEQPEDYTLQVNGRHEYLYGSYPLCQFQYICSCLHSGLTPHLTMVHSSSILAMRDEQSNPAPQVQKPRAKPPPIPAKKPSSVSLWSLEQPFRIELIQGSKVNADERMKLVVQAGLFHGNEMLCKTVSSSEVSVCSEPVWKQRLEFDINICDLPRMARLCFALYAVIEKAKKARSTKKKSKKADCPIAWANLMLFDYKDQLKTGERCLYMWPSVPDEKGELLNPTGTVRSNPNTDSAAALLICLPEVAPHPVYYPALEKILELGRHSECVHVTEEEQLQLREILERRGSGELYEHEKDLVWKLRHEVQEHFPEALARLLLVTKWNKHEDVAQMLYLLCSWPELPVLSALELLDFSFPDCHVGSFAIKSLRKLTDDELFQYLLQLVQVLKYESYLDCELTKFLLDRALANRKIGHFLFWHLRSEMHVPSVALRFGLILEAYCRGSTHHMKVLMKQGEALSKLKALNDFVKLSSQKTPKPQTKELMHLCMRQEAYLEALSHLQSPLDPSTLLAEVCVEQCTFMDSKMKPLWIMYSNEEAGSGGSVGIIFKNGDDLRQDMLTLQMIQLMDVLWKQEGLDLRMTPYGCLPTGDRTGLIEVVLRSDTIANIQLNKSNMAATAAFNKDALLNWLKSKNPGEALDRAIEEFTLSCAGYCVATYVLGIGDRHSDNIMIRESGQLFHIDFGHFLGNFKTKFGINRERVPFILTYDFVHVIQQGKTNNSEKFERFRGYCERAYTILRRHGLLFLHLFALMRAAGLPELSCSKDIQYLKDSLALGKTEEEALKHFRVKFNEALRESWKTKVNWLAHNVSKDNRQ
Sequence of PI 3-kinase delta (P27986 461-568 partner): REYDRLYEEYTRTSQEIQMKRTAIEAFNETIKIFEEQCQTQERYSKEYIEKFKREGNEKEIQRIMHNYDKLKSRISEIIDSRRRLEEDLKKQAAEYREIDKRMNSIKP
Sequence of PI 3-kinase alpha (P42336 whole entry): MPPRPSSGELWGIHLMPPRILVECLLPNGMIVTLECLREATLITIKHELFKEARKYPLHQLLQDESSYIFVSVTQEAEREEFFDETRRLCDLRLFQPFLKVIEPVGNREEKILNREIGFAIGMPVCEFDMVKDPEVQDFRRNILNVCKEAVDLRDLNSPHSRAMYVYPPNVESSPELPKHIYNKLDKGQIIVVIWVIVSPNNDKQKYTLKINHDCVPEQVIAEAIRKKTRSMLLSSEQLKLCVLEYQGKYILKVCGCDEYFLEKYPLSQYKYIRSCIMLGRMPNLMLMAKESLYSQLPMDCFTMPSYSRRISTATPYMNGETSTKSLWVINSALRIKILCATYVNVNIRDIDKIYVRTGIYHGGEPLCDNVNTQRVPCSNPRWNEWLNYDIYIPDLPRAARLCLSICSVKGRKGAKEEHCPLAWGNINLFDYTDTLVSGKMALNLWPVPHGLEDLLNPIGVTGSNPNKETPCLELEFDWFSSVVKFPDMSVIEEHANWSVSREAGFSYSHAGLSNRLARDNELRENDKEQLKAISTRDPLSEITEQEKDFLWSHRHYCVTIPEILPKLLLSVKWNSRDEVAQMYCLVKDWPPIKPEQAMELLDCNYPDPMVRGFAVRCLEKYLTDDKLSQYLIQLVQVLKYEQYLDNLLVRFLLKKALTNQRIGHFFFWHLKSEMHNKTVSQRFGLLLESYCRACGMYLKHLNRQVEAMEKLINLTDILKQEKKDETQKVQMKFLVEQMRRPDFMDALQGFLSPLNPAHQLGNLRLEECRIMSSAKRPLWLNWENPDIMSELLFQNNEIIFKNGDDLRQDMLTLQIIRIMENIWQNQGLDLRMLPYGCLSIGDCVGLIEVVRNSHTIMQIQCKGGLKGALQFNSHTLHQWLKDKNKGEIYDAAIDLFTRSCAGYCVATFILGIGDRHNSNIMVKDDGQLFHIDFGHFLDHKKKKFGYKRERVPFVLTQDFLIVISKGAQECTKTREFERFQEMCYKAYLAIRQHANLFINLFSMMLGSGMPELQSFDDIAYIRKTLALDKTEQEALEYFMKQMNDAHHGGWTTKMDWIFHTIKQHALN
Sequence of PI 4-kinase beta (Q9UBF8 whole entry): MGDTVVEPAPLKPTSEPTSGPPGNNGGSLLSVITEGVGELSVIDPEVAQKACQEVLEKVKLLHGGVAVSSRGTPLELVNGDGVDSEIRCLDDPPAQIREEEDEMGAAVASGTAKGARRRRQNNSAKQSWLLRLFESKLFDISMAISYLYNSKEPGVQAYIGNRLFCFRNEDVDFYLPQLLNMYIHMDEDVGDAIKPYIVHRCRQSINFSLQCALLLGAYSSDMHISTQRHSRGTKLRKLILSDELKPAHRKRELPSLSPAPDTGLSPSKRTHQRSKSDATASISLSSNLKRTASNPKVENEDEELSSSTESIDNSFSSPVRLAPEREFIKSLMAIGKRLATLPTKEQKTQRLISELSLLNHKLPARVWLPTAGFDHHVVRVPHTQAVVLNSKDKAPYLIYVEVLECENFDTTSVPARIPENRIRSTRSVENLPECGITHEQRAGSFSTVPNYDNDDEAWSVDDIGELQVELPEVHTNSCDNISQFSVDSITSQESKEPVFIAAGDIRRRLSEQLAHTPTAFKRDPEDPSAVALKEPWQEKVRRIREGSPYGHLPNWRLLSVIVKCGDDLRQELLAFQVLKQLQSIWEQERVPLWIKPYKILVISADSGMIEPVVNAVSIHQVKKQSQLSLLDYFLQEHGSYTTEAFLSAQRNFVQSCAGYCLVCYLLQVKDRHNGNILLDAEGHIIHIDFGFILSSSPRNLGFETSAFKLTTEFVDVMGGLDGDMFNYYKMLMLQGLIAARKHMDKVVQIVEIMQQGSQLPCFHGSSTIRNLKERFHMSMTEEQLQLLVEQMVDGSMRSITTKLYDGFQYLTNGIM
Sequence of PI 3-kinase gamma (P48736 whole entry): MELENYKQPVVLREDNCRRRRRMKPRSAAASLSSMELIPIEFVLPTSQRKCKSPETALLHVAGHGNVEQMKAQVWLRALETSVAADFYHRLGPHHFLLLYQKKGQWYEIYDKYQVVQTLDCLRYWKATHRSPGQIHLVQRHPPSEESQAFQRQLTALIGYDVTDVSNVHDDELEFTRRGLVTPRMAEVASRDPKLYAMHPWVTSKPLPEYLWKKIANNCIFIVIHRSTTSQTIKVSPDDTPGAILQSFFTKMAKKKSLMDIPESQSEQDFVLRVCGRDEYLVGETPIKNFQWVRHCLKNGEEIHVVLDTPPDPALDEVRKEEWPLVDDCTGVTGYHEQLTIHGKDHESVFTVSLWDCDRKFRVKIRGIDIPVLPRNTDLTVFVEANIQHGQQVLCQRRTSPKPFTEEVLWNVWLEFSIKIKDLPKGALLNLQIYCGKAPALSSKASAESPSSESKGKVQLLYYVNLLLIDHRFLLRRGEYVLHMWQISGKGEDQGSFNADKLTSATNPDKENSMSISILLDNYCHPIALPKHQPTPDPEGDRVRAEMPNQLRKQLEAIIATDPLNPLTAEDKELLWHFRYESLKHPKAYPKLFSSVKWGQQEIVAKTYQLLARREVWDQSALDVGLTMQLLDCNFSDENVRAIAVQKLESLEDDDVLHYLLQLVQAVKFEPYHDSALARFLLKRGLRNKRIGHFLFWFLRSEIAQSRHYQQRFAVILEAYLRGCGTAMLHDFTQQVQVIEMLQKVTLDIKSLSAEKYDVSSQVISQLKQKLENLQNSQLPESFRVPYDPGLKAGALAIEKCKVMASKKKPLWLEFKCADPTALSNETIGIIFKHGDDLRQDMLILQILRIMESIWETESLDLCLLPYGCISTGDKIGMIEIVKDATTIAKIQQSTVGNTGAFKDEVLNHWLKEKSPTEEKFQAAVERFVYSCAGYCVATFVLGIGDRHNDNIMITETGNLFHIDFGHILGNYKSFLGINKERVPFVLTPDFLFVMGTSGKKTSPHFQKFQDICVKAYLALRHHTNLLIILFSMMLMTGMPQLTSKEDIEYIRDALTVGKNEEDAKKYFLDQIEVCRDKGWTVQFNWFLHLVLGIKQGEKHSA
Sequence of Vps34 (Q8NEB9 whole entry, species assumed): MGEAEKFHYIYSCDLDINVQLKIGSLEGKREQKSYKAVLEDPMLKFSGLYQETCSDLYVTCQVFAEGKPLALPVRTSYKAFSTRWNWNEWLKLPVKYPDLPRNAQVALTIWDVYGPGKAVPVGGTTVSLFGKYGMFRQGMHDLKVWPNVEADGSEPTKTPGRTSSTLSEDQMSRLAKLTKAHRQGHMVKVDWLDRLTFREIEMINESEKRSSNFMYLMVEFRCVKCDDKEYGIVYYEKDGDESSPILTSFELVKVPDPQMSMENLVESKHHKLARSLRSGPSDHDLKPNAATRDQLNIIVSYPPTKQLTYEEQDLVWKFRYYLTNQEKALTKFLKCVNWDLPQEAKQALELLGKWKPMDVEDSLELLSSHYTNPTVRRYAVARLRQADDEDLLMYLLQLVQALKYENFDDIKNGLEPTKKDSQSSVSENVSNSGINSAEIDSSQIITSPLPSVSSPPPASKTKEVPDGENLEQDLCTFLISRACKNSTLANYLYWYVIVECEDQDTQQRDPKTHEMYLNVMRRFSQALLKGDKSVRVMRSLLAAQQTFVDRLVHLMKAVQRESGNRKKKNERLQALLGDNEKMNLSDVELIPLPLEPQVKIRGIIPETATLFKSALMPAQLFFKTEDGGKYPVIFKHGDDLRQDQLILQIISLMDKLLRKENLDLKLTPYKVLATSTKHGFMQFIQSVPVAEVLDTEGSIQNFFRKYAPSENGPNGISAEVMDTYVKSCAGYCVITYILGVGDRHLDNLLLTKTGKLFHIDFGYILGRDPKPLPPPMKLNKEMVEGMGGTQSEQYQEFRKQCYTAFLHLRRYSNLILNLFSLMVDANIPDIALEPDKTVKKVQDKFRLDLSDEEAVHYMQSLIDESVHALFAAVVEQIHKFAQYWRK

| IC50 (PI 3-kinase alpha) | IC50 (PI 3-kinase beta) | IC50 (Vps34) | IC50 (PI 4-kinase beta) | IC50 (PI 3-kinase gamma) | IC50 (mTOR) | IC50 (PI 3-kinase delta; read-out: Assay F PI3Kδ IC50) | Assay M RLM CI(int) [1] | IC50 (PI 3-kinase delta) | SMILES |
| --- | --- | --- | --- | --- | --- | --- | --- | --- | --- |
| – | – | 0.65 µM | 0.78 µM | – | – | – | 147 µL/min/mg | – | Cc1ncc(-c2nc(-c3cc(S(=O)(=O)NCC(F)(F)F)ccc3C)cnc2N)s1 [Example 45.5, 3-(5-Amino-6-(2-methylthiazol-5-yl)pyrazin-2-yl)-4-methyl-N-(2,2,2-trifluoroethyl)benzenesulfonamide] |
| 0.26 µM | 5.3 µM | > 9.1 µM | > 9.1 µM | 0.14 µM | > 9.1 µM | 1.1 µM | 159 µL/min/mg | – | Cc1cc(-c2nc(-c3cc(S(=O)(=O)NCCN4CCOCC4)ccc3C)cnc2N)ccn1 [Example 129.28, 3-(5-amino-6-(2-methylpyridin-4-yl)pyrazin-2-yl)-4-methyl-N-(2-morpholinoethyl)benzenesulfonamide] |
| 0.39 µM | 2.2 µM | > 10 µM | > 10 µM | 0.16 µM | > 10 µM | 1.5 µM | 20 µL/min/mg | – | Cc1ccc(S(=O)(=O)NC2CCC(CO)CC2)cc1-c1cnc(N)c(-n2cncn2)n1 (stereo not drawn) [Example 127.6] |
| 1.5 µM | 5.3 µM | > 10 µM | 3 µM | 0.18 µM | > 10 µM | 3.2 µM | 641 µL/min/mg | – | Cc1ccc(S(=O)(=O)N2CCC(F)CC2)cc1-c1cnc(N)c(-n2cncn2)n1 [Example 127.34] |
| > 9.1 µM | > 9.1 µM | > 9.1 µM | > 9.1 µM | 0.2 µM | > 9.1 µM | 6.6 µM | 755 µL/min/mg | – | Cc1cc(-c2nc(-c3cc(S(=O)(=O)NCC(C)(C)CN(C)C)ccc3C)cnc2N)ccn1 [Example 129.24, 3-(5-amino-6-(2-methylpyridin-4-yl)pyrazin-2-yl)-N-(3-(dimethylamino)-2,2-dimethylpropyl)-4-methylbenzenesulfonamide] |
| 0.42 µM | 6.9 µM | > 9.1 µM | > 9.1 µM | 0.045 µM | > 9.1 µM | 0.94 µM | 20 µL/min/mg | – | Cc1cc(-c2nc(-c3cc(S(=O)(=O)NC[C@H](C)O)ccc3C)cnc2N)ccn1 [Example 129.9, (S)-3-(5-amino-6-(2-methylpyridin-4-yl)pyrazin-2-yl)-N-(2-hydroxypropyl)-4-methylbenzenesulfonamide] |
| 0.04 µM | 0.37 µM | 6 µM | 5.8 µM | 0.018 µM | – | 0.05 µM | 194 µL/min/mg | – | Cc1ncc(-c2nc(-c3cc(S(=O)(=O)NCC4CCOCC4)ccc3C)cnc2N)s1 [Example 45.2, 3-(5-Amino-6-(2-methylthiazol-5-yl)pyrazin-2-yl)-4-methyl-N-((tetrahydro-2H-pyran-4-yl)methyl)benzenesulfonamide] |
| 1.6 µM | 4 µM | > 9.1 µM | > 9.1 µM | 0.32 µM | > 9.1 µM | 2.3 µM | 13 µL/min/mg | – | Cc1cc(-c2nc(-c3cc(S(=O)(=O)N4CCC(N)CC4)ccc3C)cnc2N)ccn1 [Example 129.41, 5-(5-(4-aminopiperidin-1-ylsulfonyl)-2-methylphenyl)-3-(2-methylpyridin-4-yl)pyrazin-2-amine] |
| 0.74 µM | > 10 µM | > 10 µM | > 10 µM | 0.17 µM | > 10 µM | 8.7 µM | 560 µL/min/mg | – | Cc1ccc(S(=O)(=O)N2CCC(F)(F)CC2)cc1-c1cnc(N)c(-n2cncn2)n1 [Example 127.33] |
| 0.73 µM | 7.5 µM | > 9.1 µM | > 9.1 µM | 0.11 µM | > 9.1 µM | – | >924 µL/min/mg | 0.91 µM | Cc1cc(-c2nc(-c3cc(S(=O)(=O)N[C@@H]4CCC[C@H]4N)ccc3C)cnc2N)ccn1 [Example 129.39, 3-(5-amino-6-(2-methylpyridin-4-yl)pyrazin-2-yl)-N-((1R,2R)-2-aminocyclopentyl)-4-methylbenzenesulfonamide] |
| 1.4 µM | > 10 µM | > 10 µM | > 10 µM | 0.21 µM | > 10 µM | 2.6 µM | 16 µL/min/mg | – | Cc1nc(C)c(-c2nc(-c3cc(S(=O)(=O)NCC(C)(C)O)ccc3C)cnc2N)s1 [Example 46.1, 3-(5-Amino-6-(2,4-dimethylthiazol-5-yl)pyrazin-2-yl)-N-(2-hydroxy-2-methylpropyl)-4-methylbenzenesulfonamide] |
| 0.69 µM | 5.4 µM | > 9.1 µM | > 9.1 µM | 0.14 µM | 6 µM | 1.2 µM | >924 µL/min/mg | – | Cc1cc(-c2nc(-c3cc(S(=O)(=O)NCC(C)(C)N4CCOCC4)ccc3C)cnc2N)ccn1 [Example 129.29, 3-(5-amino-6-(2-methylpyridin-4-yl)pyrazin-2-yl)-4-methyl-N-(2-methyl-2-morpholinopropyl)benzenesulfonamide] |

Further lines, the compound ahead of its results:

| SMILES | IC50 (PI 3-kinase alpha) | IC50 (PI 3-kinase beta) | IC50 (Vps34) | IC50 (PI 4-kinase beta) | IC50 (PI 3-kinase gamma) | IC50 (mTOR) | IC50 (PI 3-kinase delta; read-out: Assay F PI3Kδ IC50) | Assay M RLM CI(int) [1] | IC50 (PI 3-kinase delta) |
| --- | --- | --- | --- | --- | --- | --- | --- | --- | --- |
| Cc1cn(-c2nc(-c3cc(S(=O)(=O)NCC(C)(C)O)ccc3C)cnc2N)c(C)n1 [Example 50, 3-(5-Amino-6-(2,4-dimethyl-1H-imidazol-1-yl)pyrazin-2-yl)-N-(2-hydroxy-2-methylpropyl)-4-methylbenzenesulfonamide] | 2.5 µM | 2.8 µM | > 10 µM | > 10 µM | 0.85 µM | > 10 µM | > 10 µM | 28 µL/min/mg | – |
| Cc1ccc(S(=O)(=O)NCC(C)(C)O)cc1-c1cnc(N)c(-c2noc(C3CC3)n2)n1 [Example 91, 3-(5-Amino-6-(5-cyclopropyl-1,2,4-oxadiazol-3-yl)pyrazin-2-yl)-N-(2-hydroxy-2-methylpropyl)-4-methylbenzenesulfonamide] | 2.35 µM | 2.55 µM | > 9.55 µM | > 9.55 µM | 0.27 µM | > 9.55 µM | 2.1 µM | 46 µL/min/mg | – |
| Cc1cc(-c2nc(-c3cc(S(=O)(=O)NC[C@@H](C)O)ccc3C)cnc2N)ccn1 [Example 129, (R)-3-(5-Amino-6-(2-methylpyridin-4-yl)pyrazin-2-yl)-N-(2-hydroxypropyl)-4-methyl benzene sulfonamide trifluoroacetic acid salt] | 0.13 µM | 7.3 µM | > 9.1 µM | > 9.1 µM | 0.024 µM | > 9.1 µM | 0.55 µM | 28 µL/min/mg | – |
| Cc1ncc(-c2nc(-c3cc(S(=O)(=O)NCC4(C)COC4)ccc3C)cnc2N)s1 [Example 120, 3-(5-Amino-6-(2-methylthiazol-5-yl)pyrazin-2-yl)-4-methyl-N-((3-methyloxetan-3-yl)methyl)benzenesulfonamide] | 0.02 µM | 1 µM | 1.3 µM | 2.5 µM | 0.004 µM | – | 0.06 µM | 95 µL/min/mg | – |
| Cc1cc(C)c(S(=O)(=O)NCC(C)(C)O)cc1-c1cnc(N)c(-n2cncn2)n1 [Example 121, 5-(5-Amino-6-(1H-1,2,4-triazol-1-yl)pyrazin-2-yl)-N-(2-hydroxy-2-methylpropyl)-2,4-dimethylbenzenesulfonamide] | 0.12 µM | 1.2 µM | > 10 µM | 0.51 µM | 0.092 µM | 5.2 µM | 0.96 µM | 31 µL/min/mg | – |
| Cc1ccc(S(=O)(=O)NCC(N)=O)cc1-c1cnc(N)c(-n2cncn2)n1 [Example 133, 2-(3-(5-Amino-6-(1H-1,2,4-triazol-1-yl)pyrazin-2-yl)-4-methylphenylsulfonamido)acetamide] | 1.02 µM | 7.8 µM | > 9.55 µM | 8.9 µM | 0.11 µM | > 9.55 µM | 1.14 µM | 19 µL/min/mg | – |
| Cc1ccc(S(=O)(=O)N2CC3(CC(O)C3)C2)cc1-c1cnc(N)c(-n2cncn2)n1 [Example 101, 2-(3-(5-Amino-6-(1H-1,2,4-triazol-1-yl)pyrazin-2-yl)-4-methylphenylsulfonyl)-2-azaspiro[3.3]heptan-6-ol] | 2 µM | 1.7 µM | > 10 µM | 2.4 µM | 0.21 µM | > 10 µM | 3 µM | 39 µL/min/mg | – |
| Cc1nnc(-c2nc(-c3cc(S(=O)(=O)NCC(C)(C)O)ccc3C)cnc2N)o1 [Example 90, 3-(5-Amino-6-(5-methyl-1,3,4-oxadiazol-2-yl)pyrazin-2-yl)-N-(2-hydroxy-2-methylpropyl)-4-methylbenzenesulfonamide] | 2.1 µM | 0.94 µM | > 10 µM | > 10 µM | 0.078 µM | > 10 µM | 2 µM | 19 µL/min/mg | – |
